Values joined by “and” are separate entries in the source; they are usually repeats but may differ in a detail not shown here. Equal values may be shown once.
Assays:
TNIK = target: T1, TNIK (Homo sapiens, UniProt Q9UKE5); assay: 375-member kinase panel; format: biochemical; conditions: Run 1, Run 2; for % enzyme activity: 1 μM
T1 construct: purchased Reaction Biology Corporation

IRAK4 = target: T2, IRAK4 (Homo sapiens, UniProt Q9NWZ3); conditions: 1 μM; Run 1, Run 2
T2 sequence (Q9NWZ3 1-460): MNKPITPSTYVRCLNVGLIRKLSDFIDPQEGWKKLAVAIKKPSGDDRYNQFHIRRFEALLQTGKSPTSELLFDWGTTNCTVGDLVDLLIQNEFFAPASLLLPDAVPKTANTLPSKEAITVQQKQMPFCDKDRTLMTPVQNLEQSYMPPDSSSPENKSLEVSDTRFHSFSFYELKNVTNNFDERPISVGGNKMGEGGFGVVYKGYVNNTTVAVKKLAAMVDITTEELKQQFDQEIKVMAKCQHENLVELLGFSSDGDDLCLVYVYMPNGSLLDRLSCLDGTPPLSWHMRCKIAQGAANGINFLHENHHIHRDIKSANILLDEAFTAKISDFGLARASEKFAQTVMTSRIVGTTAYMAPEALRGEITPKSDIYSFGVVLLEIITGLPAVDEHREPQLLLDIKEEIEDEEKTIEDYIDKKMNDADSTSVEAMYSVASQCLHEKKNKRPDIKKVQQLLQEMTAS

LCK2/ICK = target: T3, LCK2/ICK (Homo sapiens, UniProt Q9UPZ9); conditions: 1 μM; Run 1, Run 2
T3 sequence (Q9UPZ9 1-632): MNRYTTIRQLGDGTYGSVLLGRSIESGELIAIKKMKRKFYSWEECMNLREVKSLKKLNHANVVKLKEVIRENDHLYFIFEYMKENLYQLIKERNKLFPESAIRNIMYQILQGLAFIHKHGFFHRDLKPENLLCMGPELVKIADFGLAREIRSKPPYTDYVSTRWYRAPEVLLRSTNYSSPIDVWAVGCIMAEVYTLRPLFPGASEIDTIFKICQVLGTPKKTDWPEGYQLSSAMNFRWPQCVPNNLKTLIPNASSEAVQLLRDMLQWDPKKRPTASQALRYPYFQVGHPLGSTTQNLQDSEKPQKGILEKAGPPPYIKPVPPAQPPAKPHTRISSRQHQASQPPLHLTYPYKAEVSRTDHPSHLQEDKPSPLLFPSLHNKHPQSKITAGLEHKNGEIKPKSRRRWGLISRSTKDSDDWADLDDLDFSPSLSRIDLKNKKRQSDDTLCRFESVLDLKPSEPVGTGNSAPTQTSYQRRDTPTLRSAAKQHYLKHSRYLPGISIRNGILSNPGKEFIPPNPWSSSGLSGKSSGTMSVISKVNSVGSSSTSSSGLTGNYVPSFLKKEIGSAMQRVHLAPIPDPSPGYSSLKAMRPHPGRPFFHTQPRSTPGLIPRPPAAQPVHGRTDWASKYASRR

MAST3 = MAST3 (Homo sapiens, UniProt O60307); conditions: 1 μM; Run 1, Run 2
STK25/YSK1 = STK25/YSK1 (Homo sapiens, UniProt O00506); conditions: 1 μM; Run 1, Run 2
DMPK2 = DMPK2 (Homo sapiens, UniProt Q6DT37); assay: biochemical; conditions: read-out: % enzyme activity, 1 μM; Run 1, Run 2
FGFR1 = FGFR1 (Homo sapiens, UniProt P11362); assay: biochemical; conditions: read-out: % enzyme activity, 1 μM; Run 1, Run 2
PKCtheta = PKCtheta (Homo sapiens, UniProt Q04759); assay: biochemical; conditions: read-out: % enzyme activity, 1 μM; Run 1, Run 2
PKCzeta = target: T4, PKCzeta (Homo sapiens, UniProt Q05513); assay: biochemical; conditions: read-out: % enzyme activity, 1 μM; Run 1, Run 2
T4 sequence (Q05513 1-592): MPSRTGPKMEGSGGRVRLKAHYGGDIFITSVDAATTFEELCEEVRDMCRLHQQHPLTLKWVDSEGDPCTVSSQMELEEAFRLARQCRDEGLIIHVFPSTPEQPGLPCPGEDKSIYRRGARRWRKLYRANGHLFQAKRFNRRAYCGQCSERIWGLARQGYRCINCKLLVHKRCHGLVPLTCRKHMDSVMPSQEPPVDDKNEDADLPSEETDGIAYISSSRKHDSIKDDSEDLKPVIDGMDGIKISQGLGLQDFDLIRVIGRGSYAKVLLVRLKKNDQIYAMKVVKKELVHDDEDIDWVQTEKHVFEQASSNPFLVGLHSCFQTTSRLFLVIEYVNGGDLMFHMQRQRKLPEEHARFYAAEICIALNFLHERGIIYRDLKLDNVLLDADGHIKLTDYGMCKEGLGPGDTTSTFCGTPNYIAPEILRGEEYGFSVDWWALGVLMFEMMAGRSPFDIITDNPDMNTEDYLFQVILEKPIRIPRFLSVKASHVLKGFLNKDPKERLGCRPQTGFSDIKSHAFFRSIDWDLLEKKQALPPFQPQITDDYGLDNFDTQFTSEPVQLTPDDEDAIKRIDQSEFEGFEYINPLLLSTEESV

T1 sequence (Q9UKE5 whole entry): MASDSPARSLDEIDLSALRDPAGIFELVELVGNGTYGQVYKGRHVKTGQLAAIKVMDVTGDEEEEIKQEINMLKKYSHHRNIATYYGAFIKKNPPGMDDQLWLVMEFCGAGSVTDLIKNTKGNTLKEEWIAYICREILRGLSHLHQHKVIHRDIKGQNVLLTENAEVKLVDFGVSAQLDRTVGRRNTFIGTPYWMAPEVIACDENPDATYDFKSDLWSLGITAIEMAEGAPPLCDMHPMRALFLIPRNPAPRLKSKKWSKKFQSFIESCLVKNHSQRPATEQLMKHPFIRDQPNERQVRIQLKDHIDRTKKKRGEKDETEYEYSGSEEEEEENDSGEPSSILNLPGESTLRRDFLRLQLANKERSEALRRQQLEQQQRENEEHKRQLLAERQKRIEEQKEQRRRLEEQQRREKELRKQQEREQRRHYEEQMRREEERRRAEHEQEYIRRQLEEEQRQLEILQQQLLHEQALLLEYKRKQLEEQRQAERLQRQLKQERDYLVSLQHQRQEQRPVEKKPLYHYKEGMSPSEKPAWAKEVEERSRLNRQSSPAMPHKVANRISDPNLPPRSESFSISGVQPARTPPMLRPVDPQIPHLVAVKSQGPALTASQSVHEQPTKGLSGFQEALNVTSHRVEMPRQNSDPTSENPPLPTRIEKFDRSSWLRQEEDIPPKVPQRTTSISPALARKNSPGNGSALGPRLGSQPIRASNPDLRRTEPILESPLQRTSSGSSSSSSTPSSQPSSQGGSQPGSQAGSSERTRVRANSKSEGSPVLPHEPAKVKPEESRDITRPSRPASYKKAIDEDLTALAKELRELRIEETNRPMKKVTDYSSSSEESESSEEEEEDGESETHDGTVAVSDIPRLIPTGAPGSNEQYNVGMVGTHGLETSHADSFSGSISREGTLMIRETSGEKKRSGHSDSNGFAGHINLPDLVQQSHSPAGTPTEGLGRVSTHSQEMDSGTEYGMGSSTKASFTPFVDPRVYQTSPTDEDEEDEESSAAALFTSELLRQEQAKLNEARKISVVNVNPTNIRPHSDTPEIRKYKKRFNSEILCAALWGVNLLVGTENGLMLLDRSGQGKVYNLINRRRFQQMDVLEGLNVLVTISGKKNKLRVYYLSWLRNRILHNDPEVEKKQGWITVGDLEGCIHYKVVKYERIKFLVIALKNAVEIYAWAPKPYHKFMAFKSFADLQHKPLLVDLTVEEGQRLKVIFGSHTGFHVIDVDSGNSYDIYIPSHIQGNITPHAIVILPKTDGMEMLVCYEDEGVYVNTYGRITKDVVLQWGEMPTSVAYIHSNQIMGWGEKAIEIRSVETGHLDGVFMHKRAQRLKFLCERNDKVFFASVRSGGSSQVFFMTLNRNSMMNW
Chain of PKCtheta (Q04759 whole entry): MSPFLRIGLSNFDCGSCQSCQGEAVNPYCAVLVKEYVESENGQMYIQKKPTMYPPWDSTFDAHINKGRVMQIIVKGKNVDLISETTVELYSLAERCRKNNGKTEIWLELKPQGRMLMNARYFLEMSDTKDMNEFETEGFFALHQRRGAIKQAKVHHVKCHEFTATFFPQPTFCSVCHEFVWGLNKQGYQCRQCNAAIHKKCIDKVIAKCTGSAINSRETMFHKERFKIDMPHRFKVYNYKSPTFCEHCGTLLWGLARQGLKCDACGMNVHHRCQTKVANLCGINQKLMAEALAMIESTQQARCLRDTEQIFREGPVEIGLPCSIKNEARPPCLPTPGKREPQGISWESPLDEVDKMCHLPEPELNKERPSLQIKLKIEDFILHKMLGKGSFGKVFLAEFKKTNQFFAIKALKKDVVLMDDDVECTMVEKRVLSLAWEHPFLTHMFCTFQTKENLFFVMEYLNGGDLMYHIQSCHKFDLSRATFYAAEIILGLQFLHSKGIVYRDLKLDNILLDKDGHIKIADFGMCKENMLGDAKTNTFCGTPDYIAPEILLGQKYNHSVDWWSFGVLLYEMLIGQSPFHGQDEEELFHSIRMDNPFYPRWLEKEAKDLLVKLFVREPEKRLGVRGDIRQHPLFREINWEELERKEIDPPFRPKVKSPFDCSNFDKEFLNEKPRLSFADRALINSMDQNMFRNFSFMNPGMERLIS
Chain of MAST3 (O60307 whole entry): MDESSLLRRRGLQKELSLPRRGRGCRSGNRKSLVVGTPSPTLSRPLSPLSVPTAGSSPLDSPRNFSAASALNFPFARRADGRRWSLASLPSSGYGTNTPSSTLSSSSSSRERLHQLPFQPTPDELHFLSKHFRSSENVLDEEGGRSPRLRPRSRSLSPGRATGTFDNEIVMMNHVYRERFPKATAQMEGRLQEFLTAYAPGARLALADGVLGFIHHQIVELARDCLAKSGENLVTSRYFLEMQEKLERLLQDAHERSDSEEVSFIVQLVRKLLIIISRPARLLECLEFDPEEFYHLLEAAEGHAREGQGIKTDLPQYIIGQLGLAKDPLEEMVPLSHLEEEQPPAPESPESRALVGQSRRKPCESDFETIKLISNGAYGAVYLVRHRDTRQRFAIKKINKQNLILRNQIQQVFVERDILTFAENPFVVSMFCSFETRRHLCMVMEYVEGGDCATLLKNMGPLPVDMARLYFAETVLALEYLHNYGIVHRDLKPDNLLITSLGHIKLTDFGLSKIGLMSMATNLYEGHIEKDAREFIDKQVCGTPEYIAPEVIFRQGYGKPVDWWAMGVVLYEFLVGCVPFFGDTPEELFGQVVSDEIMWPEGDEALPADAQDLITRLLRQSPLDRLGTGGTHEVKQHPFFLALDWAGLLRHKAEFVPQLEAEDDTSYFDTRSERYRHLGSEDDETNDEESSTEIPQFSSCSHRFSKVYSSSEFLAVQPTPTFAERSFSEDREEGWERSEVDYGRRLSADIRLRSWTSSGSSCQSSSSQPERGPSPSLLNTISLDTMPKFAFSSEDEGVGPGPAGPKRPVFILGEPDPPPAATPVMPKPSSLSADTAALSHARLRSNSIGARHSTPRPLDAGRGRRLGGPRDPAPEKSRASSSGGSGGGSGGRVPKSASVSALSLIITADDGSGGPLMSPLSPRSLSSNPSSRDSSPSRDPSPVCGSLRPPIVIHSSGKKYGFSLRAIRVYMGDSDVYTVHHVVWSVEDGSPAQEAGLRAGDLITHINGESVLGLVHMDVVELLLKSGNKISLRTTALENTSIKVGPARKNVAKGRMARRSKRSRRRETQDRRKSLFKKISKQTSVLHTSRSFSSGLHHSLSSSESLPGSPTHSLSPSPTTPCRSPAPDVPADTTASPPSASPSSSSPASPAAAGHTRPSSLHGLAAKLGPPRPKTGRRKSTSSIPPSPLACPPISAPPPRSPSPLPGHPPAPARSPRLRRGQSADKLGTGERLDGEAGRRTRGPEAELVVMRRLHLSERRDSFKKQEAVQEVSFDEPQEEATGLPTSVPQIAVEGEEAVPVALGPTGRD
Chain of DMPK2 (Q6DT37 whole entry): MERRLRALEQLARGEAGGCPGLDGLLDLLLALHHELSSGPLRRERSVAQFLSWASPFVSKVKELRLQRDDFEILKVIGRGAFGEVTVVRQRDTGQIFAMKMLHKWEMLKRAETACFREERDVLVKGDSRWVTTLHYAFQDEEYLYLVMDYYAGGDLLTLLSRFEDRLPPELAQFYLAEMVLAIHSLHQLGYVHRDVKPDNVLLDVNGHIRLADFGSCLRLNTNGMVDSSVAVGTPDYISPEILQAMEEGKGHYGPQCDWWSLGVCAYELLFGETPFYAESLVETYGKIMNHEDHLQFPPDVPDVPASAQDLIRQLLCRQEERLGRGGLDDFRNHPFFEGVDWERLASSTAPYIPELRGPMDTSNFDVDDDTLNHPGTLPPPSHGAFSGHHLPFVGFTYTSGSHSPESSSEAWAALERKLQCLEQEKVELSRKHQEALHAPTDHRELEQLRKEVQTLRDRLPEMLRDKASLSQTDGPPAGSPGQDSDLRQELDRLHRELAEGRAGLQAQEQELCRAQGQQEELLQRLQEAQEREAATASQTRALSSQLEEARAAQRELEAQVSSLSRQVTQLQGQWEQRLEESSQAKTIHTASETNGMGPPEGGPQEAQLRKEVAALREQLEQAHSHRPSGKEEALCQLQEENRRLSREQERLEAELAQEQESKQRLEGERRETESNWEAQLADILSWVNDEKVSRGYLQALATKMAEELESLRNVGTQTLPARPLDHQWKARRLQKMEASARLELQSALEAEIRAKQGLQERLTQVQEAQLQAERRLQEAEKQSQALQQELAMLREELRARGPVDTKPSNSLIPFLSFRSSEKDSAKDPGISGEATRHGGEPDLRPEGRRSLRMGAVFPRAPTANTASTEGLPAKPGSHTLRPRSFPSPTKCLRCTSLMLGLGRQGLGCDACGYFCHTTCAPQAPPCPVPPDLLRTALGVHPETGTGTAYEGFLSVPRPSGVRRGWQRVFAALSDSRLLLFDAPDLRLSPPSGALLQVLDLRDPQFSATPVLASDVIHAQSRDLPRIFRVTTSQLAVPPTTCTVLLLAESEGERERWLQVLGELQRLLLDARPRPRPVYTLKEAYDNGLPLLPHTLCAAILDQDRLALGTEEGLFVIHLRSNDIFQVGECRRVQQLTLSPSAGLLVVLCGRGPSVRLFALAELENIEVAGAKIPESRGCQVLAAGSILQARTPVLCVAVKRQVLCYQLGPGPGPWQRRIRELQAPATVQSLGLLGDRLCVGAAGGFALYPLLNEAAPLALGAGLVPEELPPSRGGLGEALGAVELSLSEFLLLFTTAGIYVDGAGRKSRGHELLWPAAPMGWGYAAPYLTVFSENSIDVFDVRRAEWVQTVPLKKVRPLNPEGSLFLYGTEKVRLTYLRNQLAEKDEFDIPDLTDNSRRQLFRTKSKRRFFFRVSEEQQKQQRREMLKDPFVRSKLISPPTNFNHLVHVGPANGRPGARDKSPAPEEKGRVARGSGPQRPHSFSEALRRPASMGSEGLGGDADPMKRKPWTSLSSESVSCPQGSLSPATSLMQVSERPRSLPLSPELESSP

Row | Compound | % enzyme activity (TNIK) | % enzyme activity (IRAK4) | % enzyme activity (LCK2/ICK) | % enzyme activity (MAST3) | % enzyme activity (STK25/YSK1) | remaining activity at 1 µM (DMPK2) | remaining activity at 1 µM (FGFR1) | remaining activity at 1 µM (PKCtheta) | remaining activity at 1 µM (PKCzeta) | remaining activity at 1 µM (TNIK; read-out: % enzyme activity, 1 μM)
1 | COc1cc(-c2cncc(-c3ccc(N4CCN(C)CC4)cc3)c2C)cc(F)c1C(N)=O [Compound 26a, 2-Fluoro-6-methoxy-4-(4-methyl-5-(4-(4-methylpiperazin-1-yl)phenyl)pyridin-3-yl)benzamide] | -0.77% and -2.62% | 82.71% | 104.57% | 93.52% | 94.98% | 83.8% | 97.4% | 85.1% | 91.2% | 
2 | COc1cc(-c2cncc(-c3ccc(N4C[C@@H](C)N(C)[C@@H](C)C4)cc3)c2C)cc(F)c1C(N)=O [Compound 26c, 2-Fluoro-6-methoxy-4-(4-methyl-5-(4-((3R,5S)-3,4,5-trimethylpiperazin-1-yl)phenyl)pyridin-3-yl)benzamide] | 3.92% | 88.61% | 95.60% | 95.17% | 94.06% | 87.5% | 101% | 87% | 92.5% | 4.85%

Reference: paper PMC8213057, “Targeting ALK2: An Open Science Approach to Developing Therapeutics for the Treatment of Diffuse Intrinsic Pontine Glioma” (Journal of Medicinal Chemistry, 2020)
